Test results published in the supplement of paper PMC10307832.

Key:
Experiment in all cases: relative viability (nuclei count vs DMSO), 5 days (fraction); higher = more cells survive
CAL-12T = system: CAL-12T
Procedure, shortened: (§1)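 Dosing by pin tool came one day after lung cancer cell lines were seeded in 1536-well plates, using either one drug or a fixed anchor-drug dose plus five library-drug doses (not always all listed) in √10 steps. After 5 days, nuclei were counted on 4× images. Relative viability is treated-well nuclei count divided by vehicle-well nuclei count, and values are medians of duplicate plates.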

PC-3 [JPC-3] = system: PC-3 [JPC-3]
Procedure, shortened: as §1

NCI-H460 = system: NCI-H460
Procedure, shortened: as §1

EMC-BAC-2 = system: EMC-BAC-2
Procedure, shortened: as §1

LU99A = system: LU99A
Procedure, shortened: as §1

ABC-1 = system: ABC-1
Procedure, shortened: as §1

NCI-H1651 = system: NCI-H1651
Procedure, shortened: as §1

BEN = system: BEN
Procedure, shortened: as §1

HCC-15 = system: HCC-15
Procedure, shortened: as §1

NCI-H2023 = system: NCI-H2023
Procedure, shortened: as §1

NCI-H358 = system: NCI-H358
Procedure, shortened: as §1

NCI-H520 = system: NCI-H520
Procedure, shortened: as §1

NCI-H1563 = system: NCI-H1563
Procedure, shortened: as §1

201T = system: 201T
Procedure, shortened: as §1

COR-L 105 = system: COR-L 105
Procedure, shortened: as §1

NCI-H522 = system: NCI-H522
Procedure, shortened: as §1

NCI-H727 = system: NCI-H727
Procedure, shortened: as §1

NCI-H838 = system: NCI-H838
Procedure, shortened: as §1

HCC-44 = system: HCC-44
Procedure, shortened: as §1

EKVX = system: EKVX
Procedure, shortened: as §1

NCI-H322M = system: NCI-H322M
Procedure, shortened: as §1

SW 900 = system: SW 900
Procedure, shortened: as §1

LK-2 = system: LK-2
Procedure, shortened: as §1

## CCNC(=O)c1noc(-c2cc(C(C)C)c(O)cc2O)c1-c1ccc(CN2CCOCC2)cc1 [Luminespib] + N=C(N)NC(=N)NCCc1ccccc1 [Phenformin] (partner 250 µM)
CAL-12T; first compound 0.002 µM
  relative viability: 0.578
CAL-12T; first compound 0.006325 µM
  relative viability: 0.512
CAL-12T; first compound 0.02 µM
  relative viability: 0.15
CAL-12T; first compound 0.06325 µM
  relative viability: 0.101
CAL-12T; first compound 0.2 µM
  relative viability: 0.0963
PC-3 [JPC-3]; first compound 0.002 µM
  relative viability: 0.463
PC-3 [JPC-3]; first compound 0.006325 µM
  relative viability: 0.457
PC-3 [JPC-3]; first compound 0.02 µM
  relative viability: 0.462
PC-3 [JPC-3]; first compound 0.06325 µM
  relative viability: 0.472
PC-3 [JPC-3]; first compound 0.2 µM
  relative viability: 0.242
NCI-H460; first compound 0.002 µM
  relative viability: 0.616
NCI-H460; first compound 0.006325 µM
  relative viability: 0.458
NCI-H460; first compound 0.02 µM
  relative viability: 0.0329
NCI-H460; first compound 0.06325 µM
  relative viability: 0.0168
NCI-H460; first compound 0.2 µM
  relative viability: 0.0232
EMC-BAC-2; first compound 0.002 µM
  relative viability: 0.529
EMC-BAC-2; first compound 0.006325 µM
  relative viability: 0.48
EMC-BAC-2; first compound 0.02 µM
  relative viability: 0.429
EMC-BAC-2; first compound 0.06325 µM
  relative viability: 0.254
EMC-BAC-2; first compound 0.2 µM
  relative viability: 0.175
LU99A; first compound 0.002 µM
  relative viability: 0.818
LU99A; first compound 0.006325 µM
  relative viability: 0.71
LU99A; first compound 0.02 µM
  relative viability: 0.535
LU99A; first compound 0.06325 µM
  relative viability: 0.167
LU99A; first compound 0.2 µM
  relative viability: 0.125
ABC-1; first compound 0.002 µM
  relative viability: 0.223
ABC-1; first compound 0.006325 µM
  relative viability: 0.272
ABC-1; first compound 0.02 µM
  relative viability: 0.241
ABC-1; first compound 0.06325 µM
  relative viability: 0.2
ABC-1; first compound 0.2 µM
  relative viability: 0.233
NCI-H1651; first compound 0.002 µM
  relative viability: 0.298
NCI-H1651; first compound 0.006325 µM
  relative viability: 0.293
NCI-H1651; first compound 0.02 µM
  relative viability: 0.304
NCI-H1651; first compound 0.06325 µM
  relative viability: 0.108
NCI-H1651; first compound 0.2 µM
  relative viability: 0.141
BEN; first compound 0.002 µM
  relative viability: 0.259
BEN; first compound 0.006325 µM
  relative viability: 0.268
BEN; first compound 0.02 µM
  relative viability: 0.273
BEN; first compound 0.06325 µM
  relative viability: 0.216
BEN; first compound 0.2 µM
  relative viability: 0.199
HCC-15; first compound 0.002 µM
  relative viability: 0.429
HCC-15; first compound 0.006325 µM
  relative viability: 0.405
HCC-15; first compound 0.02 µM
  relative viability: 0.311
HCC-15; first compound 0.06325 µM
  relative viability: 0.162
HCC-15; first compound 0.2 µM
  relative viability: 0.114
NCI-H2023; first compound 0.002 µM
  relative viability: 0.39
NCI-H2023; first compound 0.006325 µM
  relative viability: 0.376
NCI-H2023; first compound 0.02 µM
  relative viability: 0.287
NCI-H2023; first compound 0.06325 µM
  relative viability: 0.0664
NCI-H2023; first compound 0.2 µM
  relative viability: 0.0658
NCI-H358; first compound 0.002 µM
  relative viability: 0.348
NCI-H358; first compound 0.006325 µM
  relative viability: 0.356
NCI-H358; first compound 0.02 µM
  relative viability: 0.152
NCI-H358; first compound 0.06325 µM
  relative viability: 0.0546
NCI-H358; first compound 0.2 µM
  relative viability: 0.0585
NCI-H520; first compound 0.002 µM
  relative viability: 0.634
NCI-H520; first compound 0.006325 µM
  relative viability: 0.537
NCI-H520; first compound 0.02 µM
  relative viability: 0.248
NCI-H520; first compound 0.06325 µM
  relative viability: 0.138
NCI-H520; first compound 0.2 µM
  relative viability: 0.191
NCI-H1563; first compound 0.002 µM
  relative viability: 0.66
NCI-H1563; first compound 0.006325 µM
  relative viability: 0.649
NCI-H1563; first compound 0.02 µM
  relative viability: 0.597
NCI-H1563; first compound 0.06325 µM
  relative viability: 0.455
NCI-H1563; first compound 0.2 µM
  relative viability: 0.465
201T; first compound 0.002 µM
  relative viability: 0.396
201T; first compound 0.006325 µM
  relative viability: 0.465
201T; first compound 0.02 µM
  relative viability: 0.477
201T; first compound 0.06325 µM
  relative viability: 0.373
201T; first compound 0.2 µM
  relative viability: 0.24
COR-L 105; first compound 0.002 µM
  relative viability: 0.474
COR-L 105; first compound 0.006325 µM
  relative viability: 0.402
COR-L 105; first compound 0.02 µM
  relative viability: 0.337
COR-L 105; first compound 0.06325 µM
  relative viability: 0.154
COR-L 105; first compound 0.2 µM
  relative viability: 0.19
NCI-H522; first compound 0.002 µM
  relative viability: 0.707
NCI-H522; first compound 0.006325 µM
  relative viability: 0.657
NCI-H522; first compound 0.02 µM
  relative viability: 0.601
NCI-H522; first compound 0.06325 µM
  relative viability: 0.546
NCI-H522; first compound 0.2 µM
  relative viability: 0.362
NCI-H727; first compound 0.002 µM
  relative viability: 0.564
NCI-H727; first compound 0.006325 µM
  relative viability: 0.398
NCI-H727; first compound 0.02 µM
  relative viability: 0.361
NCI-H727; first compound 0.06325 µM
  relative viability: 0.318
NCI-H727; first compound 0.2 µM
  relative viability: 0.175
NCI-H838; first compound 0.002 µM
  relative viability: 0.664
NCI-H838; first compound 0.006325 µM
  relative viability: 0.55
NCI-H838; first compound 0.02 µM
  relative viability: 0.257
NCI-H838; first compound 0.06325 µM
  relative viability: 0.107
NCI-H838; first compound 0.2 µM
  relative viability: 0.114
HCC-44; first compound 0.002 µM
  relative viability: 0.245
HCC-44; first compound 0.006325 µM
  relative viability: 0.163
HCC-44; first compound 0.02 µM
  relative viability: 0.119
HCC-44; first compound 0.06325 µM
  relative viability: 0.0759
HCC-44; first compound 0.2 µM
  relative viability: 0.11
EKVX; first compound 0.002 µM
  relative viability: 0.236
EKVX; first compound 0.006325 µM
  relative viability: 0.209
EKVX; first compound 0.06325 µM
  relative viability: 0.223
EKVX; first compound 0.2 µM
  relative viability: 0.104
NCI-H322M; first compound 0.002 µM
  relative viability: 0.801
NCI-H322M; first compound 0.006325 µM
  relative viability: 0.729
NCI-H322M; first compound 0.02 µM
  relative viability: 0.717
NCI-H322M; first compound 0.06325 µM
  relative viability: 0.287
NCI-H322M; first compound 0.2 µM
  relative viability: 0.278
SW 900; first compound 0.002 µM
  relative viability: 0.625
SW 900; first compound 0.006325 µM
  relative viability: 0.489
SW 900; first compound 0.02 µM
  relative viability: 0.344
SW 900; first compound 0.06325 µM
  relative viability: 0.0721
SW 900; first compound 0.2 µM
  relative viability: 0.124
LK-2; first compound 0.002 µM
  relative viability: 0.474
LK-2; first compound 0.006325 µM
  relative viability: 0.436
LK-2; first compound 0.02 µM
  relative viability: 0.252
LK-2; first compound 0.06325 µM
  relative viability: 0.0992
LK-2; first compound 0.2 µM
  relative viability: 0.141
